#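 Growth conditions: 96-well plates. Treatment: test compound, 48 hours, 5 concentrations. Analysis: linear interpolation between bracketing concentrations; unreached endpoints set to highest concentration. TGI is the concentration that stops growth completely.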
# Legend:
# Assay in all cases: inhibition of tumour cell growth, NCI panel, 48 h
# KM20L2 colon = tested on: KM20L2 colon
# HS 578T breast = tested on: HS 578T breast
# COLO 205 colon = tested on: COLO 205 colon
# LXFL 529 NSCLC = tested on: LXFL 529 NSCLC
# RXF-631 renal = tested on: RXF-631 renal
# DMS 114 small cell lung = tested on: DMS 114 small cell lung
# DMS 273 small cell lung = tested on: DMS 273 small cell lung
# HOP-18 NSCLC = tested on: HOP-18 NSCLC
# DLD-1 colon = tested on: DLD-1 colon
# SNB-78 CNS = tested on: SNB-78 CNS
# M19-MEL melanoma = tested on: M19-MEL melanoma
# XF 498 CNS = tested on: XF 498 CNS
SMILES,TGI (KM20L2 colon) [µM],TGI (HS 578T breast) [µM],TGI (COLO 205 colon) [µM],TGI (LXFL 529 NSCLC) [µM],TGI (RXF-631 renal) [µM],TGI (DMS 114 small cell lung) [µM],TGI (DMS 273 small cell lung) [µM],TGI (HOP-18 NSCLC) [µM],TGI (DLD-1 colon) [µM],TGI (SNB-78 CNS) [µM],TGI (M19-MEL melanoma) [µM],TGI (XF 498 CNS) [µM]
COc1ccccc1/C=C1\CCC(CN2CCOCC2)C1=O (stereo not drawn),32.6,> 100,14.2,9.34,24.4,35.6,28.4,31.8,18.1,48.2,18,30.1
COc1cc2c(c(OC)c1)C(=O)C(=O)C(CC1(C)OCCCO1)=C2,31.9,,9.58,14.6,36.6,12.7,28.4,24.5,8.45,26,6.18,25.6

# — PubChem BioAssay (NCI)
